For 32 compounds, IC50 and Activity results are on record in ChEMBL document CHEMBL1833942, “6-arylcoumarins as novel nonsteroidal type progesterone antagonists: an example with receptor-binding-dependent fluorescence” (J Med Chem, 2011).

In assay [1] the target is T1, Progesterone receptor (Homo sapiens, UniProt P06401).
T1 sequence (P06401 whole entry): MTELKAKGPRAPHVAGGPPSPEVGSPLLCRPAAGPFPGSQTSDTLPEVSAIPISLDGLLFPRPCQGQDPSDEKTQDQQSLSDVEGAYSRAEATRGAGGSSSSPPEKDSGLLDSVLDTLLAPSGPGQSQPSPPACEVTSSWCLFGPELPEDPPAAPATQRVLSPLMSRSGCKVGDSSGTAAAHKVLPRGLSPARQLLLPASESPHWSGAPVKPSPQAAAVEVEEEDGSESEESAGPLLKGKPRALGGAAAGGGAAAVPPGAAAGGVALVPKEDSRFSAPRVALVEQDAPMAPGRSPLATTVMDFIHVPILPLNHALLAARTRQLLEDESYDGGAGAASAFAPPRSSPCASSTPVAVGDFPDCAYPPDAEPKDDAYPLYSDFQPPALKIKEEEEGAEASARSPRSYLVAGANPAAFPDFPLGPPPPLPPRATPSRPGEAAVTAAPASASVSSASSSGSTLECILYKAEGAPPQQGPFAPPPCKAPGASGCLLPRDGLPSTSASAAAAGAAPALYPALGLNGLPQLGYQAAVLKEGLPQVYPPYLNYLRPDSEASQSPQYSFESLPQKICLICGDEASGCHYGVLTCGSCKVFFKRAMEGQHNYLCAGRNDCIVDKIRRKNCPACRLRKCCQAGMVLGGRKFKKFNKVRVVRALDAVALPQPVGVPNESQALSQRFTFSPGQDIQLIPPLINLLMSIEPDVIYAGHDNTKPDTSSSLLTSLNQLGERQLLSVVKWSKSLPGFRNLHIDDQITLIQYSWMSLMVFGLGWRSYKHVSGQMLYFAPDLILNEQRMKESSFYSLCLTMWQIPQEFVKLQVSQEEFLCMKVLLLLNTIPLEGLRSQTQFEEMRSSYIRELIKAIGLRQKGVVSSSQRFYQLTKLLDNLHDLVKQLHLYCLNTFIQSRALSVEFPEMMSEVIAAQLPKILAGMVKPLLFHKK
The experiment in a line: Antagonist activity at human progesterone receptor in T47D cells after 24 hrs by alkaline phosphatase assay. Type of assay: functional, cell-based.

Assay [2] addresses T2, Progesterone receptor (Homo sapiens) (UniProt P06401).
T2 sequence (whole entry): T1 sequence (P06401 whole entry)
In words: Antagonist activity at human progesterone receptor expressed in CHO cells at 10^-7 M after 24 hrs by luciferase reporter gene assay. Type of assay: functional, cell-based. In general terms: A reporter such as luciferase makes a cellular process visible.

For assay [3], the target named is T1, Progesterone receptor. In words: Displacement of [1,2,6,7-3H]PG from human PR-LBD after 24 hrs by liquid scintillation counting.
Assay [4] addresses T2, Progesterone receptor (Homo sapiens). In words: Antagonist activity at human progesterone receptor expressed in CHO cells at 10^-6 M after 24 hrs by luciferase reporter gene assay. Type of assay: functional, cell-based.
The target is the same in assay [5]. In words: Antagonist activity at human progesterone receptor expressed in CHO cells at 10^-5 M after 24 hrs by luciferase reporter gene assay. Type of assay: functional, cell-based.
A further assay deals with T3, Glucocorticoid receptor (Homo sapiens, UniProt P04150).
T3 sequence (P04150 whole entry): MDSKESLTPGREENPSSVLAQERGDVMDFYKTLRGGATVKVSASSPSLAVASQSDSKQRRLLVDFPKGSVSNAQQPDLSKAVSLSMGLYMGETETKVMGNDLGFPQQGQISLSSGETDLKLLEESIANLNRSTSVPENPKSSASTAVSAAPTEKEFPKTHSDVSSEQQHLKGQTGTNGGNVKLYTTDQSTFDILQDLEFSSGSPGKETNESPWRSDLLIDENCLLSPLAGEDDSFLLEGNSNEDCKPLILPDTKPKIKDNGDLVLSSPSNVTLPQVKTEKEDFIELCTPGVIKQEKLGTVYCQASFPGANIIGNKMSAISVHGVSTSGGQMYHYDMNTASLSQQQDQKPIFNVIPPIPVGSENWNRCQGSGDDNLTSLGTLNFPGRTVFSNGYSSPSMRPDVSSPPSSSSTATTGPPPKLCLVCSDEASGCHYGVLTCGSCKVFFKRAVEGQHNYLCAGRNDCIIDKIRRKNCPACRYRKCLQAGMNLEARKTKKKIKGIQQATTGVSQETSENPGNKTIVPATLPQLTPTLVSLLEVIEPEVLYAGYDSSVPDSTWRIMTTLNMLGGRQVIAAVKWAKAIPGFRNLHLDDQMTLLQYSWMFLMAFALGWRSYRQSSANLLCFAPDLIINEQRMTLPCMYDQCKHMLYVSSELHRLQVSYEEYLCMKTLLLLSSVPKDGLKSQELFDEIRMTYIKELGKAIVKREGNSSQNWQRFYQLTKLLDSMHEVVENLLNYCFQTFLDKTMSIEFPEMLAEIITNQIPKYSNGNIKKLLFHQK
In words: Displacement of [3H]-dexamethasone from human recombinant glucocorticoid receptor after 18 hrs by liquid scintillation counting.

The next assay concerns the target T4, Androgen receptor (Homo sapiens, UniProt P10275).
T4 sequence (P10275 whole entry): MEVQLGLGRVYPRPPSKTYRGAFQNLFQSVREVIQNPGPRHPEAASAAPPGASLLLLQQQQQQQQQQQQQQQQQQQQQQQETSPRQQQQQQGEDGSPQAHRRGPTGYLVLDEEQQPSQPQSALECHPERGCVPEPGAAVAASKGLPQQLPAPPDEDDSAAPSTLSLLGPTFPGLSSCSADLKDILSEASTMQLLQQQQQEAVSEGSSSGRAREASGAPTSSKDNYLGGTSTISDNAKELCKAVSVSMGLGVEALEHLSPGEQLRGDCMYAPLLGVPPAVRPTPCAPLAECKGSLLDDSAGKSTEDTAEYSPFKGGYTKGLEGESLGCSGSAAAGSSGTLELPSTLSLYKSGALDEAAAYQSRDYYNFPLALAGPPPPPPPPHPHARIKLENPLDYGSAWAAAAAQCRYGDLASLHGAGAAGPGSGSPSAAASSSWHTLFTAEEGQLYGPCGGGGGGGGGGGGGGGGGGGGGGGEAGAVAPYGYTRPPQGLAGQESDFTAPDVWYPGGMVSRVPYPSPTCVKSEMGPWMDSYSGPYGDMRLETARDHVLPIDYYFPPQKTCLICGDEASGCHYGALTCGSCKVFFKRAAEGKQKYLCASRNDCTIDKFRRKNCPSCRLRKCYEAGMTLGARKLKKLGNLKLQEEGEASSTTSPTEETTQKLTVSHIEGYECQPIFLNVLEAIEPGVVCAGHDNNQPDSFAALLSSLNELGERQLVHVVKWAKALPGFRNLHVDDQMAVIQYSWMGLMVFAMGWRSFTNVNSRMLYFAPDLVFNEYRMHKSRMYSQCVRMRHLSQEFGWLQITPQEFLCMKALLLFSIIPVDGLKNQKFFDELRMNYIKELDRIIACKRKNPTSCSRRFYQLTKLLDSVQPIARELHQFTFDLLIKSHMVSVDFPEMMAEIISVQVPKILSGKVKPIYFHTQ
In words: Displacement of [3H]DHT from human recombinant androgen receptor-LBD expressed in Escherichia coli after 18 hrs by liquid scintillation counting. In general terms: Displacement assays read how much labelled ligand stays bound in the presence of the test substance.

For assay [6], the target named is T2, Progesterone receptor (Homo sapiens). In words: Binding affinity to human PR LBD by fluorescence assay in presence of progesterone.
The target is the same in assay [7]. In words: Binding affinity to human PR LBD by fluorescence assay.
Assay [8] addresses T5, Estrogen receptor (Homo sapiens) (UniProt P03372).
T5 sequence (whole entry): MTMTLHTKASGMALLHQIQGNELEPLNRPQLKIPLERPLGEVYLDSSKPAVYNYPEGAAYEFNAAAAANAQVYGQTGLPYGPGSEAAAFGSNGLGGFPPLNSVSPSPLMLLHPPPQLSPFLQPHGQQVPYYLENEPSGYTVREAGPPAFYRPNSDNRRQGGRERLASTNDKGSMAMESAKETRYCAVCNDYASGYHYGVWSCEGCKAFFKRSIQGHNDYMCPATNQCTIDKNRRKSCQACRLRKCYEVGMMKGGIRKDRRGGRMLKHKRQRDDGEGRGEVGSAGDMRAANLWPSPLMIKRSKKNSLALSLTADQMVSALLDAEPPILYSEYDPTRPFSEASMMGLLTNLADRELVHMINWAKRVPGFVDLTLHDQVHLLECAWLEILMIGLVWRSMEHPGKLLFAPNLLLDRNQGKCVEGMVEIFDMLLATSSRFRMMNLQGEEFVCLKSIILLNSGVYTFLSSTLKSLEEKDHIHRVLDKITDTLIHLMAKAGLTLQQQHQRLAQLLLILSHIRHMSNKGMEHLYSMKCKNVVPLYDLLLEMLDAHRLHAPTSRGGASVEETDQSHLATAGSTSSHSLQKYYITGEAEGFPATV
The experiment in a line: Binding affinity at human estrogen receptor by fluorescence assay.

Molecules are shown by their SMILES. Active and inactive are the calls of the source. The calls are words filed in the database; no cut-off is given here.

Usually IC50 stands for the concentration at which inhibition is half-maximal. Turning to `CCN(CC)c1cc2oc(=O)ccc2cc1-c1ccc(N(C)C)cc1`, the IC50 on Progesterone receptor [1] is 0.39 µM.

For the compound `O=c1ccc2cc(-c3ccccc3)c(O)cc2o1`, the IC50 against Progesterone receptor [1] was determined as 1.28 µM.

In turn, `CN(C)c1ccc(-c2ccc3oc(=O)ccc3c2)cc1` returned an IC50 against Progesterone receptor [1] of 0.31 µM.

The compound `CCN(CC)c1cc2oc(=O)ccc2cc1-c1ccc(NC(C)=O)cc1` yielded a 50% inhibitory concentration (IC50) on Progesterone receptor [1] of 0.47 µM.

Turning to `O=c1ccc2cc(-c3cccs3)ccc2o1`, the result in assay [2], in assay [4] and in assay [5] was Active. For the same compound, the IC50 on Progesterone receptor [1] is 0.54 µM; at Progesterone receptor [3], 10 µM.

With `O=c1ccc2cc(-c3cccc(-c4cccnc4)c3)ccc2o1`, on Progesterone receptor [1], 27.9 µM corresponded to half-maximal inhibition (IC50).

`CN(C)c1cc2oc(=O)ccc2cc1-c1cccc(C#N)c1` gave an IC50 against Progesterone receptor [1] of 0.26 µM.

For the compound `CN(C)c1cc2oc(=O)ccc2cc1-c1ccccc1`, on Progesterone receptor [1], it took 0.36 µM to reach half-maximal inhibition (IC50).

On to `COc1cc2oc(=O)ccc2cc1-c1ccc(N(C)C)cc1`, for which, at Progesterone receptor [1], the midpoint of inhibition, the IC50, lay at 3.34 µM.

On Progesterone receptor [1], `CCN(CC)c1cc2oc(=O)ccc2cc1-c1ccc(N)c([N+](=O)[O-])c1` registered an IC50 of 0.51 µM.

For `CCN(CC)c1cc2oc(=O)ccc2cc1-c1cccc(C#N)c1`, the IC50 against Progesterone receptor [1] amounted to 0.38 µM.

`O=c1ccc2cc(-c3cccc(C(F)(F)F)c3)ccc2o1` gave an IC50 against Progesterone receptor [1] of 0.19 µM.

Turning to `CCOC(=O)c1cc2cc(-c3ccccc3)c(N(CC)CC)cc2oc1=O`, the midpoint of inhibition against Progesterone receptor [1], the IC50, lay at 4.07 µM.

`Cn1c(C#N)ccc1-c1ccc2oc(=O)ccc2c1`: the result in assay [2], in [4] and in [5] was Active. Besides, the IC50 came out at 0.065 µM on Progesterone receptor [1] and 15.2 µM at Progesterone receptor [3].

As for `N#Cc1cccc(-c2ccc3oc(=O)ccc3c2)c1`, the IC50 on Progesterone receptor [1] was 1.11 µM.

`CN(C)c1ccc(-c2cc3ccc(=O)oc3cc2O)cc1` had an IC50 against Progesterone receptor [1] of 2.59 µM.

The compound `CCN(CC)c1cc2oc(=O)ccc2cc1-c1ccc(C(C)=O)cc1` displayed an IC50 at Progesterone receptor [1] of 0.4 µM.

Regarding `CN(C)c1cc2oc(=O)ccc2cc1-c1ccc(C#N)cc1`, it took 0.25 µM to reach half-maximal inhibition at Progesterone receptor [1] (IC50).

In the case of `CCN(CC)c1cc2oc(=O)ccc2cc1-c1ccc([N+](=O)[O-])cc1`, the IC50 on Progesterone receptor [1] is 0.86 µM.

On to `CCN(CC)c1cc2oc(=O)ccc2cc1-c1ccc(F)cc1`, for which, at Progesterone receptor [1], the IC50 was found to be 0.63 µM.

Compound `O=c1ccc2cc(-c3ccc(F)cc3)ccc2o1` yielded an IC50 on Progesterone receptor [1] of 0.21 µM.

Take `N#Cc1ccc(-c2ccc3oc(=O)ccc3c2)cc1`: the IC50 against Progesterone receptor [1] came out at 0.29 µM.

Turning to `O=c1ccc2cc(-c3ccc(Cl)s3)ccc2o1`, the result in [2], in assay [4] and in assay [5] was Active. In addition, the IC50 on Progesterone receptor [1] is 0.12 µM; at Progesterone receptor [3], 50.5 µM.

For the compound `CCN(CC)c1cc2oc(=O)ccc2cc1-c1ccc(C#N)cc1`, half-maximal inhibition at Progesterone receptor [1] (IC50) was put at 0.5 µM.

In the case of `CCN(CC)c1cc2oc(=O)ccc2cc1-c1cccs1`, the outcome in assay [2], in assay [4] and in assay [5] was Active. Also, the half-inhibitory concentration (IC50) is 0.22 µM at Progesterone receptor [1], 1.24 µM on Progesterone receptor [3], 4.96 µM on Glucocorticoid receptor and 9.7 µM at Androgen receptor.

Regarding `O=c1ccc2cc(-c3ccccc3)ccc2o1`, the half-maximal inhibitory concentration (IC50) at Progesterone receptor [1] is 0.51 µM.

The compound `CCN(CC)c1cc2oc(=O)ccc2cc1-c1ccc(Cl)cc1` registered an IC50 against Progesterone receptor [1] of 0.77 µM.

Turning to `CN(C)c1cc2oc(=O)ccc2cc1-c1ccc(F)cc1`, the IC50 on Progesterone receptor [1] is 0.47 µM.

At Progesterone receptor [1], `COc1cc2oc(=O)ccc2cc1-c1ccccc1` returned an IC50 of 0.88 µM.

Regarding `CCN(CC)c1cc2oc(=O)ccc2cc1-c1ccccc1`, the outcome in [2], in assay [7], in assay [4] and in assay [5] was Active. Further, the outcome in assay [6] and in assay [8] was inactive. Moreover, the IC50 against Progesterone receptor [1] turned out to be 0.5 µM; on Progesterone receptor [3] it was 1.42 µM; on Glucocorticoid receptor, 3.54 µM; on Androgen receptor, 10 µM.

Regarding `O=c1ccc2cc(-c3ccco3)ccc2o1`, the IC50 at Progesterone receptor [1] came to 1.28 µM.

`O=c1ccc2cc(-c3cc(F)cc(F)c3)ccc2o1` showed an IC50 against Progesterone receptor [1] of 0.56 µM.
